Results as given in patent US6468969B1, “Inhibition of HIV-1 replication using d-amino acid peptides” (priority 1997, dated 2002).

Biological target: proteinase K (Parengyodontium album, UniProt P06873)
Assay: Proteinase K digestion of peptide-TAR RNA photocrosslink products
Details: very vigorous proteinase K digestion
Protocol: For photochemical reactions, RNA duplex was prepared by hybridizing two strands ^24. Strand 1 of the duplex was 5′-end labeled with ^32P. Preformed RNA duplexes(0.02 μM) in the absence or presence of the peptide (0.1 μM) were irradiated ([…]) and analyzed by denaturing gels as described in Wang et al., Biochemistry 35, 6491-6499 (1996).

proteinase K, sequence (P06873 106-384): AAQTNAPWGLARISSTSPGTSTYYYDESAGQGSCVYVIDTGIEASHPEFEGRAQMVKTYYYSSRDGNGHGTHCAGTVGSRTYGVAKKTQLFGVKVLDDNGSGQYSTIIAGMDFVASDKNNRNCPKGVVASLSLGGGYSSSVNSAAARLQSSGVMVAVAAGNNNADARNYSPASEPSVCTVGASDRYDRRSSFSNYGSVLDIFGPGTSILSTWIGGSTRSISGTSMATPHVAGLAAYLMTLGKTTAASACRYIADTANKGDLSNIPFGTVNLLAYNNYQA

CC[C@@H](C)[C@@H](NC(=O)CNC(=O)[C@@H](CC(C)C)NC(=O)[C@@H](C)NC(=O)[C@@H](CCCCN)NC(=O)[C@H](NC(=O)[C@H](NC(=O)[C@@H](Cc1ccccc1)NC(=O)[C@H](N)CS)[C@H](C)O)[C@H](C)O)C(=O)N[C@H](CO)C(=O)N[C@H](Cc1ccc(O)cc1)C(=O)NCC(=O)N[C@H](CCCNC(=N)N)C(=O)N[C@H](CCCCN)C(=O)N[C@H](CCCCN)C(=O)N[C@H](CCCNC(=N)N)C(=O)N[C@H](CCCNC(=N)N)C(=O)N[C@H](CCC(N)=O)C(=O)N[C@H](CCCNC(=N)N)C(=O)N[C@H](CCCNC(=N)N)C(=O)N[C@H](CCCNC(=N)N)C(=O)N1CCC[C@@H]1C(=O)N1CCC[C@@H]1C(=O)N[C@H](CCC(N)=O)C(=O)NCC(=O)N[C@H](CO)C(=O)N[C@H](CCC(N)=O)C(=O)N[C@@H](C(=O)N[C@H](Cc1c[nH]cn1)C(=O)N[C@H](CCC(N)=O)C(=O)N[C@@H](C(=O)N[C@H](CO)C(=O)N[C@H](CC(C)C)C(=O)N[C@H](CO)C(=O)N[C@H](CCCCN)C(=O)N[C@H](CCC(N)=O)C(=O)O)C(C)C)[C@H](C)O [D-Tat (37-72) peptide, D-Cys-D-Phe-D-Thr-D-Thr-D-Lys-D-Ala-D-Leu-D-Gly-D-Ile-D-Ser-D-Tyr-D-Gly-D-Arg-D-Lys-D-Lys-D-Arg-D-Arg-D-Gln-D-Arg-D-Arg-D-Arg-D-Pro-D-Pro-D-Gln-D-Gly-D-Ser-D-Gln-D-Thr-D-His-D-Gln-D-Val-D-Ser-D-Leu-D-Ser-D-Lys-D-Gln]
protease stability of peptide-RNA crosslink products: completely stable
